Experiment [1] addresses T1, Bcl-2-like protein 10 (Homo sapiens, UniProt Q9HD36).
T1 sequence (Q9HD36 whole entry): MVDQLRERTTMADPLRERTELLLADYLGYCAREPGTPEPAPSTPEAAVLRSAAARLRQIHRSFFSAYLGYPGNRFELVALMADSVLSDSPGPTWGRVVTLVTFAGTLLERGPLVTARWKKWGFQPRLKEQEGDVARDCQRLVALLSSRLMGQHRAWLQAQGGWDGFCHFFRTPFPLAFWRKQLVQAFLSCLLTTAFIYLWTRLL
Nature of the experiment: Bcl-B/TR3 peptide binding disruption – biochemical, fluorescence polarization, FITC-TR3 peptide, selectivity assay for Bfl-1 inhibitor project, primary screen (AID 748).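 Note: fluorescence polarization from a fluorescein-labelled TR3 peptide binding purified Bcl-B.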

In experiment [2] the target is Estrogen receptor beta (Homo sapiens, UniProt Q92731). The experiment is described as follows: blockers of SRC-3 recruitment to ERβ – biochemical, ELISA, streptavidin-HRP readout, orthogonal assay, confirmation (AID 1060).
Experiment [3] concerns the target T2, Polyadenylate-binding protein 1 (Homo sapiens, UniProt P11940). The experiment is described as follows: MLLE binding blockers, Cy5 peptide tracer – biochemical, fluorescence polarization, Cy5-PAM2 peptide, secondary, miRNA deadenylation inhibitor project, dose response (AID 602260). Type of experiment: functional. The settings on record: read-out: IC50_Mean.

Experiment [4] concerns the target T2, Polyadenylate-binding protein 1. Nature of the experiment: MLLE domain peptide-binding blockers, IC50 – biochemical, fluorescence polarization, FITC-PAM2 peptide, dose response (AID 602259). The conditions noted are these: read-out: IC50_Mean. Type of experiment: functional.
Experiment [5] has as its target T3, Heat shock factor protein 1 (Mus musculus, UniProt P38532).
T3 sequence (P38532 whole entry): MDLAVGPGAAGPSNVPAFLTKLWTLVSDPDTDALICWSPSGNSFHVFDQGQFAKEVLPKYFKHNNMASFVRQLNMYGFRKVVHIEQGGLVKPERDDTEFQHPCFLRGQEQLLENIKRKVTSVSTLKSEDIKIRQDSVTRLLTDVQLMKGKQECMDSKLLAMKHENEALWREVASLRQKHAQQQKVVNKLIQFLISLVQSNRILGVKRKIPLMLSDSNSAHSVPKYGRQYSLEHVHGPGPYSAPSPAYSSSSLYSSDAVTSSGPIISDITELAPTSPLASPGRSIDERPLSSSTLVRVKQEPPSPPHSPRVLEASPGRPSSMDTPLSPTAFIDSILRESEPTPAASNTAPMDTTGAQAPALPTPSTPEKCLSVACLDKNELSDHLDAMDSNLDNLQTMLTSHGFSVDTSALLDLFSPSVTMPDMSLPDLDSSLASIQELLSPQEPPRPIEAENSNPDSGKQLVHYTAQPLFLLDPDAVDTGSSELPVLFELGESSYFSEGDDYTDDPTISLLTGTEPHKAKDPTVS
Nature of the experiment: decrease of HSF1-responsive luciferase luminescence – cell-based, NIH3T3, dose retest, confirmation (AID 2382).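 Note: NIH3T3 fibroblasts with HSF1-driven luciferase reporter stressed by proteasome inhibitor MG132; luminescence from HSF1-driven luciferase expression after 8 hours of MG132 stress.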 Type of experiment: functional.

Experiment [6] has as its target Tumor necrosis factor (Homo sapiens, UniProt P01375). Nature of the experiment: analog potency on TNFa NF-kB signaling – cell-based, revised, SAR follow-up (AID 2337). Type of experiment: functional.
The target of experiment [7] is T4, Nucleotide-binding oligomerization domain-containing protein 1 (Homo sapiens, UniProt Q9Y239).
T4 sequence (Q9Y239 whole entry): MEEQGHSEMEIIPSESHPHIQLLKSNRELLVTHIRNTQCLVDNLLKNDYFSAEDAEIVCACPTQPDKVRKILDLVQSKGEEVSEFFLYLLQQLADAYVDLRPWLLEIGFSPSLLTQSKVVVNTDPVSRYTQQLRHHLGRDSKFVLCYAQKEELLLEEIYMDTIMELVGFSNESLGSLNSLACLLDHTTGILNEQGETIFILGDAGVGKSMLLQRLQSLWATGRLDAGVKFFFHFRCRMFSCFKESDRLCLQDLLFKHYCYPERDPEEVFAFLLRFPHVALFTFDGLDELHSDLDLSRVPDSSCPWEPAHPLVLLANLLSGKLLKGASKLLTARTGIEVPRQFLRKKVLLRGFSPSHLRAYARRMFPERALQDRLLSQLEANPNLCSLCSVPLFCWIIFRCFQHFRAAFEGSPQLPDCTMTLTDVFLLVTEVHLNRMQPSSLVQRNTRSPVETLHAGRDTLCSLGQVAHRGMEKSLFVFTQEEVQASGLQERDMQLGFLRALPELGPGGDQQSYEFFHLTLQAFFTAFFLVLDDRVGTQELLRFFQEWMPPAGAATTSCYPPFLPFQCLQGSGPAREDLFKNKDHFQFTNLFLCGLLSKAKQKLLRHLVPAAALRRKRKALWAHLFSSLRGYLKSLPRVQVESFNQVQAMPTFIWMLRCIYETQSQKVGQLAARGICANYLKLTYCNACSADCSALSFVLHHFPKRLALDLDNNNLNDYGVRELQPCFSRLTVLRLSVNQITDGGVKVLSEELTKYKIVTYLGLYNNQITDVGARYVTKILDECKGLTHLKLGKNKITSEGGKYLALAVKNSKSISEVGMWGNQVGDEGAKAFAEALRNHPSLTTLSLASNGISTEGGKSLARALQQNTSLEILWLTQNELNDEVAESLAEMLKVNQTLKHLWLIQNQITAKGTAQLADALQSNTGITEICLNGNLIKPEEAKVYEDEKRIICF
Nature of the experiment: blockers of NOD1 pathway activity – revised, SAR follow-up (AID 2333). The format is functional.

For experiment [8], the target named is Cyclin-dependent kinase 5/CDK5 activator 1 (Homo sapiens, UniProt Q00535). Nature of the experiment: blockade of human CDK5 activity – biochemical, cherry-picked samples, set 2, dose response (AID 504545).
Experiment [9] addresses T5, Small ubiquitin-related modifier 1 (Homo sapiens, UniProt P63165). The experiment is described as follows: SUMO1 protein interaction blockers, potency – biochemical, fluorescence polarization, uHTS hits, dose response (AID 624382). The format is functional. The settings on record: read-out: IC50_Mean.
Experiment [10] deals with T5, Small ubiquitin-related modifier 1. Nature of the experiment: SUMO1 protein-protein binding blockers, potency – biochemical, FRET, dose response (AID 624383). The settings on record: read-out: IC50_Mean. Type of experiment: functional.
Experiment [11] deals with T6, Voltage-gated N-type calcium channel alpha-1B subunit/Amyloid beta A4 precursor protein-binding family A member 1 (Homo sapiens, UniProt Q00975+Q02410). The format is protein assay.
Experiment [12] concerns the target T6, Voltage-gated N-type calcium channel alpha-1B subunit/Amyloid beta A4 precursor protein-binding family A member 1. Type of experiment: protein assay. The source holds these as a separate data set.
Experiment [13] has as its target T7, Caspase-3 (Homo sapiens, UniProt P42574).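 Note: Dose-response selectivity test against caspase-3 for candidate inhibitors of sentrin-specific proteases (SENPs).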
T7 sequence (P42574 whole entry): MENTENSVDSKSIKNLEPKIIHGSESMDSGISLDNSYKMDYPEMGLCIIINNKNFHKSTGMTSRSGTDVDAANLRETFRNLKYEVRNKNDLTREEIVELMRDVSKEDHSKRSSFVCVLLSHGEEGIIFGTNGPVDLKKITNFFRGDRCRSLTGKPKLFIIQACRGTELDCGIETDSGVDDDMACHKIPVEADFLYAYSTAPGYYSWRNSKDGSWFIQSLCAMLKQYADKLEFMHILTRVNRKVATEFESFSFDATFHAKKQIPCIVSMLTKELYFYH
The format is functional.

Experiment [14] concerns the target T8, Sentrin-specific protease 7 (Homo sapiens, UniProt Q9BQF6).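 Note: Luminescence-based dose-response confirmation of ultra-high-throughput screening hits, measuring inhibition of SENP7.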
T8 sequence (Q9BQF6 whole entry): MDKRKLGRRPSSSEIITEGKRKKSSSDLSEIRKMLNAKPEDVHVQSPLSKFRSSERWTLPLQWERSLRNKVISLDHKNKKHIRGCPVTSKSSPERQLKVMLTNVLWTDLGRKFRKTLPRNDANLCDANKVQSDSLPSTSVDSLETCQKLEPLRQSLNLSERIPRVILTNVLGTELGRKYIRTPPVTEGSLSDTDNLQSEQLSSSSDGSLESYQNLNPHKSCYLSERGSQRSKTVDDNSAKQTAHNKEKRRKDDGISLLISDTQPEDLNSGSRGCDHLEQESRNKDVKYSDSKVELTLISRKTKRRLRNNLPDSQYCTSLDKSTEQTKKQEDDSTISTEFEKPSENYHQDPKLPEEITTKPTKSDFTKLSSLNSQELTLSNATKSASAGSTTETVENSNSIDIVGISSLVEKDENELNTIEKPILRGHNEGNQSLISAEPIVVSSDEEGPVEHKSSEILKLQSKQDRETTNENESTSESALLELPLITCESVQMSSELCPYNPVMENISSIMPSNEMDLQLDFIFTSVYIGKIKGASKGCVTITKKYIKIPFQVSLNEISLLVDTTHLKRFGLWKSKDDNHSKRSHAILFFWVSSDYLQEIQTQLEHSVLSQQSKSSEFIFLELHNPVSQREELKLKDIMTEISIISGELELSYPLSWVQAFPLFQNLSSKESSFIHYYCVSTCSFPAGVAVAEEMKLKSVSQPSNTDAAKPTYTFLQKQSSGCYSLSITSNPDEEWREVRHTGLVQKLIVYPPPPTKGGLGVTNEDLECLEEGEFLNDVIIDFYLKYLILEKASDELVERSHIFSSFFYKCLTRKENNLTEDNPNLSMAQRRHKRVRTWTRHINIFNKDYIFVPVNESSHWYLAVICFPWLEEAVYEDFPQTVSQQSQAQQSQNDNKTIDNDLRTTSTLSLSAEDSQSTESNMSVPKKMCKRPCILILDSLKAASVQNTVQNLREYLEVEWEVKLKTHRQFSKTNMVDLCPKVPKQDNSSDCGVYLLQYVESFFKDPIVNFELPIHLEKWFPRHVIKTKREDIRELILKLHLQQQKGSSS
Type of experiment: functional.

Experiment [15] concerns the target T9, Sentrin-specific protease 6 (Homo sapiens, UniProt Q9GZR1).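 Note: Luminescence-based dose-response confirmatory assay of SENP6 inhibition, following up an ultra-high-throughput screen.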
T9 sequence (Q9GZR1 whole entry): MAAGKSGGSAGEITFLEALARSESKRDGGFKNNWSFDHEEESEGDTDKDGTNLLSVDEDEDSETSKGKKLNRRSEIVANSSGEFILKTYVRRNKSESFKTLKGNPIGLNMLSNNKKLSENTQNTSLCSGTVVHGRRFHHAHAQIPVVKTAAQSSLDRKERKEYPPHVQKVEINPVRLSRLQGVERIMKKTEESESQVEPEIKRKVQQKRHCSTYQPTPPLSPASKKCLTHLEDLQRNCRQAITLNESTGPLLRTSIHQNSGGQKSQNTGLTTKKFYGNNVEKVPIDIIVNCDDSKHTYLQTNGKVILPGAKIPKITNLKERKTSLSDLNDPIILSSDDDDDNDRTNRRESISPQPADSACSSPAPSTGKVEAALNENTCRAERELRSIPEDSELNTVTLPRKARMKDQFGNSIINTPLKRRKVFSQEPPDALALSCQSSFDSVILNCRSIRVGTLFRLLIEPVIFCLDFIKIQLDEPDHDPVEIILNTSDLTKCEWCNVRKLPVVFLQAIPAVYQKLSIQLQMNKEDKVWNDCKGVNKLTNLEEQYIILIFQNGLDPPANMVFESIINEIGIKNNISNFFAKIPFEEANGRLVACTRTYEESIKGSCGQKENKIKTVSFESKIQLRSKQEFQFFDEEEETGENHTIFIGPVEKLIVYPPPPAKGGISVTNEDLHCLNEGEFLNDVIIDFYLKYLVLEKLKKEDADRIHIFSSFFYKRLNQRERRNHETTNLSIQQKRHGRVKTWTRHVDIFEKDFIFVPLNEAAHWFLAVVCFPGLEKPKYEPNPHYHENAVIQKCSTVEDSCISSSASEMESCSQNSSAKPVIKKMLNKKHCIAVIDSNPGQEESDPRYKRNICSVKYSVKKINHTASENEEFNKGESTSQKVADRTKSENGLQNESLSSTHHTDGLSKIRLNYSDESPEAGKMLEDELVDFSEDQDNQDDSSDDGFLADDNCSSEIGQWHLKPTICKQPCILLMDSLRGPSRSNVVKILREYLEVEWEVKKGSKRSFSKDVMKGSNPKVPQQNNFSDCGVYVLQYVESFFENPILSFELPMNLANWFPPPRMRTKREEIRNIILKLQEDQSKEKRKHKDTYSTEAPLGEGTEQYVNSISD
The format is functional.

Experiment [16] has as its target T10, Sentrin-specific protease 8 (Homo sapiens, UniProt Q96LD8).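 Note: luminescence read-out of SENP8 inhibition, dose-response confirmation following an ultra-high-throughput screen.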
T10 sequence (Q96LD8 whole entry): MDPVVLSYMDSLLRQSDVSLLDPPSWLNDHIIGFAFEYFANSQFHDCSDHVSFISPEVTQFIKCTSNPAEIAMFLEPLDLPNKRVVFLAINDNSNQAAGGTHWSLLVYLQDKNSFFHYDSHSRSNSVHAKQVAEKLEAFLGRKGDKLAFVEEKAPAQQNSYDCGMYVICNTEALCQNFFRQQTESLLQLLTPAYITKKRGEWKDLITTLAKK
The format is functional.

Each structure is given as a SMILES string. Calls of active or inactive are those of the source. A value given as a limit tells only on which side of the number the result lay.

Experimental findings from ChEMBL document CHEMBL1201862, “PubChem BioAssay data set” (2004) are described below.

Sequence of Cyclin-dependent kinase 5/CDK5 activator 1 (Q00535 whole entry): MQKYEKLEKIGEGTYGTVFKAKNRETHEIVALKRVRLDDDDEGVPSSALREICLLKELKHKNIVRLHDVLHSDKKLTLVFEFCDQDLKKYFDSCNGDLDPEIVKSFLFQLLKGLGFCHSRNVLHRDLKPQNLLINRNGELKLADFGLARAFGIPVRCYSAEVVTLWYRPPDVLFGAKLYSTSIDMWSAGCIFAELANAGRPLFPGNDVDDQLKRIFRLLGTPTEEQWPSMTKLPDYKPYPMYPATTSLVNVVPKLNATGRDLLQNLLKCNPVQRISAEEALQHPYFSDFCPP
Sequence of Cyclin-dependent kinase 5/CDK5 activator 1 (Q15078 whole entry, further chain): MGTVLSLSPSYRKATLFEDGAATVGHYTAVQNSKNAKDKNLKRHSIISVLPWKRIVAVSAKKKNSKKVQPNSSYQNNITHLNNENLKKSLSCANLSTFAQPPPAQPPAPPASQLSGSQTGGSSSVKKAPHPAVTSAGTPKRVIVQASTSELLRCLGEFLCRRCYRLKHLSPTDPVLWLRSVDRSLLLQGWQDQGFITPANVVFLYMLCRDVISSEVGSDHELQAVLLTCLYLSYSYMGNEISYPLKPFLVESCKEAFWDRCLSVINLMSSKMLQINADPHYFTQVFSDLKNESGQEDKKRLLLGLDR
T6 sequence (Q00975 whole entry): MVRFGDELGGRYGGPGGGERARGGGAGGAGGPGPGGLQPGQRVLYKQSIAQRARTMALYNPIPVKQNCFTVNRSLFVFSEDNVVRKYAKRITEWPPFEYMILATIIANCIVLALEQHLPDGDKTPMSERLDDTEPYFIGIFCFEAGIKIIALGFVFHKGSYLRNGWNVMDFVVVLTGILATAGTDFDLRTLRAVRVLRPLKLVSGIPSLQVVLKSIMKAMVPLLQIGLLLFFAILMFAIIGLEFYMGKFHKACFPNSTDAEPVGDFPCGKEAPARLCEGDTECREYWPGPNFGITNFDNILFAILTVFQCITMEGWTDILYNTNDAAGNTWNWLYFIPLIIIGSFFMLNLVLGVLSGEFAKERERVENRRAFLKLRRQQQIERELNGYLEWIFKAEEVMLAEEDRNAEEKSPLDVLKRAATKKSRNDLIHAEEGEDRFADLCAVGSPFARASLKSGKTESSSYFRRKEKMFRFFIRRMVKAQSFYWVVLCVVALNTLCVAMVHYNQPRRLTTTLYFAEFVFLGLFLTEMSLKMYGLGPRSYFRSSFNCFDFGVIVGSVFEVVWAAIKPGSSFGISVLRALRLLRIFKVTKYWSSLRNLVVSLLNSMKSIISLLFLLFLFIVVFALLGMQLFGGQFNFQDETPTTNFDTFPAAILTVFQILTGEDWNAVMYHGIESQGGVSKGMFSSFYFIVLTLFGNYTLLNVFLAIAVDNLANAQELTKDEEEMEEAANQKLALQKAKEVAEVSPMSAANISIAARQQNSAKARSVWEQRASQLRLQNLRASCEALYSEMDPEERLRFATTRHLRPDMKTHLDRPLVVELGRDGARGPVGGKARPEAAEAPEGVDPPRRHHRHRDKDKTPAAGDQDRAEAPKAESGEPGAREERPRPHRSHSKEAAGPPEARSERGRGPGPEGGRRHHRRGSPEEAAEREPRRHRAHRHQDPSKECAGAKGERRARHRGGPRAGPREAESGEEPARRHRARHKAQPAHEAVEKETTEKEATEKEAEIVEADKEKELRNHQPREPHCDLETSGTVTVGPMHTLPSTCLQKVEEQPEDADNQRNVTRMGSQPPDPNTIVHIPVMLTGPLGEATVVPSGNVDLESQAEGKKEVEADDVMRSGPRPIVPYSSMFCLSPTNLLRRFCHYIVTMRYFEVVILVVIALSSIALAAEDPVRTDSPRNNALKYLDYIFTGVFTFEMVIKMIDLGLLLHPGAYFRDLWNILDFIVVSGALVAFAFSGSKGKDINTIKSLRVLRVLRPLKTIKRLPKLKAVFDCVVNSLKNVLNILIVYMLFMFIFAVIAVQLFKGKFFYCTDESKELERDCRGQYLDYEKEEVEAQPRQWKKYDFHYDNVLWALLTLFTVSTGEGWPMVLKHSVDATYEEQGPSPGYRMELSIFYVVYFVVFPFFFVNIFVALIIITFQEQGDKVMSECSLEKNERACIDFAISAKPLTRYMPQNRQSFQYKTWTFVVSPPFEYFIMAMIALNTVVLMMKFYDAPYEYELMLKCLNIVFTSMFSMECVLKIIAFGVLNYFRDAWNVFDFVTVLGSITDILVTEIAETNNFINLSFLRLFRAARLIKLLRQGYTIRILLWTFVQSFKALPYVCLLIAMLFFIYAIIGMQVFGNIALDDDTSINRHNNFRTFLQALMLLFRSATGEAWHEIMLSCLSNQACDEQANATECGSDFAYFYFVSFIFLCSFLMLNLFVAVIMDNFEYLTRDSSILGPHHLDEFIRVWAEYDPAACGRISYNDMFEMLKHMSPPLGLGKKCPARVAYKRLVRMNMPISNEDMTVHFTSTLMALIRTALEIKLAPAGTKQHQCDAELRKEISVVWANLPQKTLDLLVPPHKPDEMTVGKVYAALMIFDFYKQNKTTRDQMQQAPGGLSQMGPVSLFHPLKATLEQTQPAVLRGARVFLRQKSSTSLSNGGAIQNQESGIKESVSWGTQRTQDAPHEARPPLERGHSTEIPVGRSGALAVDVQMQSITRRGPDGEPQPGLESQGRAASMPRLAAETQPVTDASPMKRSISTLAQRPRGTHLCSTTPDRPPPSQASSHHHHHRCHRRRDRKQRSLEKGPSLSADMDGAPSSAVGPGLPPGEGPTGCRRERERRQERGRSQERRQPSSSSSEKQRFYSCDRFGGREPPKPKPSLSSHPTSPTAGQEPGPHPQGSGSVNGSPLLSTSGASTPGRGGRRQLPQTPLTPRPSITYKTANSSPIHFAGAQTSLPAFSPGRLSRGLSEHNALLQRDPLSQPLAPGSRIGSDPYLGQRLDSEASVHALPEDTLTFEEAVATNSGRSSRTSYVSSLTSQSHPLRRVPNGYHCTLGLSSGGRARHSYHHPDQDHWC
T6 sequence (Q02410 whole entry): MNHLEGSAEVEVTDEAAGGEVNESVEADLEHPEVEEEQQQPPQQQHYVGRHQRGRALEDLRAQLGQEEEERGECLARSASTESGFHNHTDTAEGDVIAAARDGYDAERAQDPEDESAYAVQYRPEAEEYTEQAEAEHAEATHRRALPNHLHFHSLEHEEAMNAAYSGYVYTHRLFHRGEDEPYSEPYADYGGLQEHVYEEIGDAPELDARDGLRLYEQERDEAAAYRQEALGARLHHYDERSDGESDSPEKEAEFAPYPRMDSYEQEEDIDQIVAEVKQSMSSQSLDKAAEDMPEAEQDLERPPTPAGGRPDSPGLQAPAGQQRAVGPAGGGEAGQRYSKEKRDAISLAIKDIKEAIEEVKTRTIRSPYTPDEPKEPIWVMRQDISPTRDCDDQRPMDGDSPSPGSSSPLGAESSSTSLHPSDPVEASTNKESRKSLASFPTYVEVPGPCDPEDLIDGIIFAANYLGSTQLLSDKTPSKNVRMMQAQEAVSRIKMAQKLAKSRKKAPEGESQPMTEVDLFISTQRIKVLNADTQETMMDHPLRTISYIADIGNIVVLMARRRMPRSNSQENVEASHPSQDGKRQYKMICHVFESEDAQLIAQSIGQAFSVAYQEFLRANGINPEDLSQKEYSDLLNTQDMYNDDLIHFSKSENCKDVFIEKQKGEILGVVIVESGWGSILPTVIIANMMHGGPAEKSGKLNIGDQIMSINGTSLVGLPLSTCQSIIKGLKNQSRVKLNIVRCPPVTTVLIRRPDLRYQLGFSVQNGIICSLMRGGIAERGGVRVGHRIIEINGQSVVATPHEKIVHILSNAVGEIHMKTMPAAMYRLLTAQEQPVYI
T2 sequence (P11940 whole entry): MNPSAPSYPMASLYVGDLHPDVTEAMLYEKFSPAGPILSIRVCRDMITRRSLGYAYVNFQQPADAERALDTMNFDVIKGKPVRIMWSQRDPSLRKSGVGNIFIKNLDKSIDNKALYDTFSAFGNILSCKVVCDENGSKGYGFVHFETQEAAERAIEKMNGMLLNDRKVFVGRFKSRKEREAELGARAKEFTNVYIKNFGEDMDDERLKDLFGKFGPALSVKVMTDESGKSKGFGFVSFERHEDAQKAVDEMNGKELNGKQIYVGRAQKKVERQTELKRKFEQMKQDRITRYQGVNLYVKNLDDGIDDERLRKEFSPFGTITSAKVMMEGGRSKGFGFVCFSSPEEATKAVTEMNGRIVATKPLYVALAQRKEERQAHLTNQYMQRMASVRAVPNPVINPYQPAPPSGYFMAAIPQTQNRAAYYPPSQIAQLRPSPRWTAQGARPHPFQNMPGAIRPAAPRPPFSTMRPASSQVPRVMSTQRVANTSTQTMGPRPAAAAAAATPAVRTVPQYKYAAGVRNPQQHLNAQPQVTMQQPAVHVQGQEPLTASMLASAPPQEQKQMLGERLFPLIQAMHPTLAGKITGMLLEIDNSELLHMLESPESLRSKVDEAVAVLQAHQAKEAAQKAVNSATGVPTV
T5 sequence (P63165 whole entry): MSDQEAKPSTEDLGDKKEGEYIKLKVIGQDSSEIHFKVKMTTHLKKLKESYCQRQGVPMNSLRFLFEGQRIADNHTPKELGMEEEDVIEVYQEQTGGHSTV
Sequence of Tumor necrosis factor (P01375 whole entry, the tested form may be a part): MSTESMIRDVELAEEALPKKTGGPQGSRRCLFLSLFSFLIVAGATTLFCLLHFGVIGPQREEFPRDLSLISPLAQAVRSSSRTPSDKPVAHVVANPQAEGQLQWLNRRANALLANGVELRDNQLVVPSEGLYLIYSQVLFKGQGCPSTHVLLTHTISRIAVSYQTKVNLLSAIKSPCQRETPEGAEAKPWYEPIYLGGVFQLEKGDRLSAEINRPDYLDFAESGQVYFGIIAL

In the case of `Cc1cc(C)c2cc3c(ccn3C3OC[C@H](O)[C@H](O)[C@H]3O)cc2n1` (some centres not stated), the IC50 in [1] is > 6.25 µM (inactive); in experiment [2], < 0.023 µM (not active); in [3], > 66 µM (inactive); in experiment [4], 57.6 µM (inactive).

With `Cc1ccc(C(=O)ON=C(N)c2ccccn2)c(C)c1`, the EC50 in experiment [5] is < 0.16 µM (active). In addition, the IC50 was 0.0706 µM (active) in [6] and 0.772 µM (active) in [7]. Moreover, the AC50 in experiment [8] was 11.8 µM (active).

On to `CC(C)[C@H](CO)Nc1nc(Nc2ccc(Cl)c(C(=O)O)c2)c2ncn(C(C)C)c2n1`, for which the AC50 in experiment [8] was 9.44 µM (active). For the same molecule, the values for the IC50 in [9] and in experiment [10] were > 66.6 µM (inactive) and 21.4 µM (inactive), respectively.

Take `O=c1[nH]c(/C=C/c2ccccc2Cl)nc2ccccc12`: the IC50 in experiment [11] is > 56.8 µM (not active); in [12], > 50 µM (inactive); in [13], 1.61 µM (active); in experiment [14], 1.64 µM (active); in experiment [15], 1.4 µM (active); in [16], > 100 µM (inactive).
